The target of experiment [1] is T1, ADAMTS-5 (Agg-2), purified recombinant human Aggrecanase-2 (Ag2t-Phe628-Strep) (Homo sapiens, UniProt Q9UNA0).
T1 construct: the form used is denoted as Ag2t-Phe628-Strep (MW=41,737)
T1 sequence (Q9UNA0 262-628): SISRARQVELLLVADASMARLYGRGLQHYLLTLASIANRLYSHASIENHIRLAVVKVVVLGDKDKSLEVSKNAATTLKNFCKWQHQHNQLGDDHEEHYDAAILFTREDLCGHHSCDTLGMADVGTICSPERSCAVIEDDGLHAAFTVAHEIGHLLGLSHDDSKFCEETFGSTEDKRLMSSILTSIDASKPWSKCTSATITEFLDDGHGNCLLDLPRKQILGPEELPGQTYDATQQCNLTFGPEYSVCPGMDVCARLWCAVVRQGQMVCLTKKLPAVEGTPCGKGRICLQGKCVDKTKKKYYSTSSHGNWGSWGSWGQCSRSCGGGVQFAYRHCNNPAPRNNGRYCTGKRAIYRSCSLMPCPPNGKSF
In words: Inhibition of aggrecanase activity of ADAMTS-5 (Agg-2), continuous fluorescent quenched-peptide assay (WAKB-5 substrate). The class given is biochemical. The following applies: concentration that inhibits 50% of the aggrecanase activity of ADAMTS-5 (Agg-2); substrate 25 μM, pH 7.4, room temperature. As for the experimental part:
The biaryl sulfonamide compounds of the present invention were tested for their ability to inhibit the aggrecanase activity of ADAMTS-4 (Agg-1) and ADAMTS-5 (Agg-2).
A continuous assay was used in which the substrate upon which Agg-1 and […] acts is a synthetic peptide containing a fluorescent group that is quenched by energy transfer. Cleavage of the peptide by the aggrecanase enzyme results in a large increase in fluorescence. The initial rates of the reaction are compared to the initial rates of reactions containing the biaryl sulfonamide compounds in order to assess the inhibitor potency of the compounds.
The source of enzyme in the assay is purified recombinant human Aggrecanase-2. More specifically, the form used is denoted as Ag2t-Phe628-Strep (MW=41,737). This form is truncated relative to the full-length enzyme and contains an affinity tag. Aliquots of this enzyme were stored at −80° C. in 25 mM Tris (pH 8.0), 100 mM NaCl, 5 mM CaCl2, 10 μM ZnCl2, 10% glycerol.
The substrate in the assay is a synthetic peptide that is designed after a portion of brevican, one of the naturally occurring substrates of Aggrecanase-2. […] WAKB-5 (mass=1740) was custom synthesized by AnaSpec, Inc. (San Jose, Calif.) and was >95% pure based on HPLC analysis. […] Stock solutions of the substrate were prepared with MilliQ water and aliquots were stored at −80° C. The concentration of this substrate stock was spectrophotometrically determined using the extinction coefficient at 354 nm of 18,172 M^−1 cm^−1.
The assay buffer (pH 7.4) consisted of 50 mM Hepes, 100 mM NaCl, 5 mM CaCl2, 0.1% CHAPS, 5% glycerol. Each well of black polystyrene 96-well or 384-well plates contained a reaction consisting of assay buffer, purified Agg-2 (diluted with assay buffer), and varied concentrations of inhibitor (prepared by serial dilution in DMSO in 96-well polypropylene plates). The plates were then incubated at room temperature for 10 minutes. The enzymatic reactions were initiated by adding substrate to a final concentration of 25 μM and were mixed by pipetting up and down. The initial rates of the cleavage reactions were determined at room temperature with a fluorescence plate reader immediately after substrate addition.
Analysis of the results was conducted by generating a plot of time vs. RFU for each sample. This was used as the “progress curve” of the reaction. The slope for the portion of the progress curve that is most linear was then determined. This slope (RFU/min) was used as the initial rate of the reaction. Plots of the inhibitor concentration vs. the initial cleavage rate were then fit to the following equation: y=Vmax*(1−(x^n/(K^n+x^n))), whereby x=inhibitor concentration, y=initial rate, Vmax=initial rate in the absence of inhibitor, n=slope factor, and K=IC50 for the inhibition curve.

A further experiment has as its target T2, ADAMTS-4 (Agg-1) (Homo sapiens, UniProt O75173).
T2 sequence (O75173 213-837): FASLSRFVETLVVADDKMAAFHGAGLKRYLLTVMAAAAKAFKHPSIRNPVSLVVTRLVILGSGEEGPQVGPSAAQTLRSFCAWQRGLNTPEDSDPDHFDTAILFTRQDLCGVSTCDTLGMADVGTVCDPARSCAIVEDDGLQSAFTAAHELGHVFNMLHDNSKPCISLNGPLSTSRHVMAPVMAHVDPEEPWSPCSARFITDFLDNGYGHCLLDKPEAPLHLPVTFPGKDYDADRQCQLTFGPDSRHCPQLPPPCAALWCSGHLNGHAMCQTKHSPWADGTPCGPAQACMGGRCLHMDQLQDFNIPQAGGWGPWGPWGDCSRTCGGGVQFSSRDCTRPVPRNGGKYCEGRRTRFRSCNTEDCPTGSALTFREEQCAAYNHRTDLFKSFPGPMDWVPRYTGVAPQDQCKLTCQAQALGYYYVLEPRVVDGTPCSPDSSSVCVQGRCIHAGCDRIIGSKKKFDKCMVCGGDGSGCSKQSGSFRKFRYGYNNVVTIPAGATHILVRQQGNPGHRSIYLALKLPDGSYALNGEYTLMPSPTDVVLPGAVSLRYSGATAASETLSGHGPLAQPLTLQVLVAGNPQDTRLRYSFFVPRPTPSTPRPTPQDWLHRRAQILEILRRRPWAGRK
Nature of the experiment: Inhibition of aggrecanase activity of ADAMTS-4 (Agg-1), continuous fluorescent quenched-peptide assay.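 Further: purified enzyme preincubated 10 min with inhibitor at room temperature, then initial substrate cleavage rate (RFU/min) read by fluorescence plate reader versus the uninhibited rate.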 The class given is biochemical. The following applies: concentration that inhibits 50% of the aggrecanase activity of ADAMTS-4 (Agg-1).

Procedure for ADAMTS-4 (Agg-1): A continuous assay was used in which the substrate upon which Agg-1 and Agg-1 acts is a synthetic peptide containing a fluorescent group that is quenched by energy transfer. […] The initial rates of the reaction are compared to the initial rates of reactions containing the biaryl sulfonamide compounds in order to assess the inhibitor potency of the compounds.
The assay buffer (pH 7.4) consisted of 50 mM Hepes, 100 mM NaCl, 5 mM CaCl2, 0.1% CHAPS, 5% glycerol. Each well of black polystyrene 96-well or 384-well plates contained a reaction consisting of assay buffer, purified Agg-2 (diluted with assay buffer), and varied concentrations of inhibitor (prepared by serial dilution in DMSO in 96-well polypropylene plates). The plates were then incubated at room temperature for 10 minutes. […] The initial rates of the cleavage reactions were determined at room temperature with a fluorescence plate reader immediately after substrate addition.

What is called IC50 is the midpoint of a concentration-inhibition curve. Take `O=C(O)CC[C@H](NC(=O)c1ccc(-c2ccccc2)cc1)C(=O)NCc1ccc(F)cc1`: the IC50 in experiment [1] was 2.8 µM; on ADAMTS-4 (Agg-1), 0.2 µM.
Consider `CC(C)[C@@H](NS(=O)(=O)c1ccc(-c2ccc(COc3cccc4[nH]ccc34)cc2)cc1)C(=O)O`, for which the IC50 in experiment [1] came out at 12 µM; against ADAMTS-4 (Agg-1) it was 1.9 µM.
Take `Cc1cc(-c2ccc(COc3ccc4c(c3)CCCC4=O)cc2)ccc1S(=O)(=O)N[C@@H](C(=O)O)C(C)C`: the results for the IC50 (in experiment [1]; on ADAMTS-4 (Agg-1)) were 11.2 µM and 0.9 µM, respectively.
As to `COc1ccc(COc2ccc(-c3ccc(S(=O)(=O)N[C@@H](C(=O)O)C(C)C)cc3)cc2)cc1`, the IC50 in experiment [1] was 6.3 µM; against ADAMTS-4 (Agg-1), 1.9 µM.
Regarding `CC(C)[C@@H](NS(=O)(=O)c1ccc(-c2ccc(COc3ccc(F)cc3)cc2)cc1)C(=O)O`, the IC50 in experiment [1] was determined as 11.3 µM; against ADAMTS-4 (Agg-1), 1.7 µM.
In the same order, the values of `CC(C)[C@@H](NS(=O)(=O)c1ccc(-c2ccc(COc3ccc(C(=O)c4ccccc4)cc3)cc2)cc1)C(=O)O` are 2 µM and 0.2 µM.
On to `CC(C)[C@@H](NS(=O)(=O)c1ccc(-c2ccc(COc3ccc(C(=O)c4ccc(F)cc4)cc3)cc2)cc1)C(=O)O` [drawing 171], for which the IC50 in experiment [1] was determined as 2.5 µM; against ADAMTS-4 (Agg-1), 0.1 µM.
Consider `CC(C)[C@@H](NS(=O)(=O)c1ccc(-c2ccc(COc3ccc(Oc4ccccc4)cc3)cc2)cc1)C(=O)O`, for which the IC50 (in experiment [1]; at ADAMTS-4 (Agg-1)) was 0.4 µM throughout.
For `CC(C)C(=O)c1ccc(OCc2ccc(-c3ccc(S(=O)(=O)N[C@@H](C(=O)O)C(C)C)cc3)cc2)cc1` [drawing 152], the IC50 in experiment [1] was found to be 8.4 µM; against ADAMTS-4 (Agg-1), 0.1 µM.
For `CC(C)[C@@H](NS(=O)(=O)c1ccc(-c2ccc(COc3cc(C(F)(F)F)nc4c(C(F)(F)F)cccc34)cc2)cc1)C(=O)O` the same measures were 1.8 µM and 0.2 µM.
In the same order, the values of `CC(C)[C@@H](NS(=O)(=O)c1ccc(-c2ccc(COc3cccc(O)n3)cc2)cc1)C(=O)O` are 6.5 µM and 0.4 µM.
For `COc1cc(COc2ccc(-c3ccc(S(=O)(=O)N[C@@H](C(=O)O)C(C)C)cc3)cc2)cc(OC)c1` the same measures were 3.2 µM and 1.9 µM.
In the case of `CC(C)[C@@H](NS(=O)(=O)c1ccc(-c2ccc(COc3ccc(Oc4ccccn4)cc3)cc2)cc1)C(=O)O`, the figures for the IC50 (in experiment [1]; against ADAMTS-4 (Agg-1)) were 10.6 µM and 0.9 µM, respectively.
With `COc1cccc(OCc2ccc(-c3ccc(S(=O)(=O)N[C@@H](C(=O)O)C(C)C)cc3)cc2)c1`, the IC50 in experiment [1] is 5.8 µM; against ADAMTS-4 (Agg-1) it was 1.8 µM.
In the case of `Cc1c(COc2ccc(-c3ccc(S(=O)(=O)N[C@@H](C(=O)O)C(C)C)cc3)cc2)oc2ccccc12`, the IC50 in experiment [1] worked out at 3.4 µM; at ADAMTS-4 (Agg-1), 1.1 µM.
`CC(C)[C@@H](NS(=O)(=O)c1ccc(-c2ccc(COc3ccc(C4CCCC4)cc3)cc2)cc1)C(=O)O`: the figures for the IC50 (in experiment [1]; on ADAMTS-4 (Agg-1)) were 0.8 µM and 0.4 µM, respectively.
For `CC(C)[C@@H](NS(=O)(=O)c1ccc(-c2ccc(COc3ccc4c(c3)CCCC4=O)cc2)cc1F)C(=O)O`, the results for the IC50 (in experiment [1]; against ADAMTS-4 (Agg-1)) were 6.6 µM and 0.2 µM, respectively.
For `CC(C)[C@@H](NS(=O)(=O)c1ccc(-c2ccc(COc3ccc4c(c3)CCCC4=O)cc2)cc1)C(=O)O`, the IC50 in experiment [1] is 7.5 µM; on ADAMTS-4 (Agg-1) it was 0.2 µM.
For `COc1ccc(OCc2ccc(-c3ccc(S(=O)(=O)N[C@@H](C(=O)O)C(C)C)cc3)cc2)cc1` the same measures were 10.7 µM and 1.6 µM.
Consider `CC(C)[C@@H](NS(=O)(=O)c1ccc(-c2ccc(COc3ccc(NC(=O)OC(C)(C)C)cc3)cc2)cc1)C(=O)O`, for which the IC50 in experiment [1] was 5.4 µM; against ADAMTS-4 (Agg-1) it was 0.6 µM.
As to `CC(C)[C@@H](NS(=O)(=O)c1ccc(-c2ccc(COc3cccc(C(=O)c4ccccc4)c3)cc2)cc1)C(=O)O`, the 50% inhibitory concentration (IC50) stood at 3.4 µM in experiment [1] and 0.2 µM against ADAMTS-4 (Agg-1).
In the same order, the values of `Cc1cccc(Oc2ccc(OCc3ccc(-c4ccc(S(=O)(=O)N[C@@H](C(=O)O)C(C)C)c(F)c4)cc3)cc2)n1` are 3.5 µM and 0.9 µM.
Consider `CC(C)[C@@H](NS(=O)(=O)c1ccc(-c2ccc(COc3ccc4c(c3)CCC4)cc2)cc1)C(=O)O`, for which the half-inhibitory concentration (IC50) in experiment [1] was 2.4 µM; at ADAMTS-4 (Agg-1), 0.4 µM.
For `CC(C)[C@@H](NS(=O)(=O)c1ccc(-c2ccc(COc3ccc(Oc4ccccc4)cc3)cc2)cc1F)C(=O)O` the same measures were over 200 µM and 0.1 µM.
In the case of `CC(=O)c1cccc(OCc2ccc(-c3ccc(S(=O)(=O)N[C@@H](C(=O)O)C(C)C)cc3)cc2)c1`, the values for the IC50 (in experiment [1]; against ADAMTS-4 (Agg-1)) were 12.6 µM and 1 µM, respectively.
On to `COc1ccc(C(=O)c2ccc(OCc3ccc(-c4ccc(S(=O)(=O)N[C@@H](C(=O)O)C(C)C)cc4)cc3)cc2)cc1`, for which the IC50 was over 100 µM in experiment [1] and 0.3 µM against ADAMTS-4 (Agg-1).
For `Cc1cccc(Oc2ccc(OCc3ccc(-c4ccc(S(=O)(=O)N[C@@H](C(=O)O)C(C)C)cc4)cc3)cc2)n1` the same measures were 4 µM and 0.7 µM.
As for `CC(C)[C@@H](NS(=O)(=O)c1ccc(-c2ccc(COc3ccc(C(=O)N4CCCC4)cc3)cc2)cc1)C(=O)O`, the IC50 in experiment [1] is 67 µM; on ADAMTS-4 (Agg-1), 1.9 µM.
As for `CC(C)[C@@H](NS(=O)(=O)c1ccc(-c2ccc(COc3cccc(C(=O)C4CCCCC4)c3)cc2)cc1)C(=O)O`, the values for the IC50 (in experiment [1]; against ADAMTS-4 (Agg-1)) were 2.4 µM and 0.4 µM, respectively.
For the molecule `CC(C)[C@@H](NS(=O)(=O)c1ccc(-c2ccc(COc3ccc(C(=O)c4ccc(F)cc4)cc3)cc2)cc1)C(=O)O` [drawing 172], the IC50 is 2.4 µM in experiment [1] and 0.1 µM at ADAMTS-4 (Agg-1).
With `CC(C)[C@@H](NS(=O)(=O)c1ccc(-c2ccc(COc3ccc(C(=O)C4CCCCC4)cc3)cc2)cc1)C(=O)O`, the IC50 came out at 2.6 µM in experiment [1] and 0.1 µM against ADAMTS-4 (Agg-1).
As to `CC(C)[C@@H](NS(=O)(=O)c1ccc(-c2ccc(COc3cccc(O)c3)cc2)cc1)C(=O)O`, the IC50 in experiment [1] stood at 13 µM; against ADAMTS-4 (Agg-1), 1.1 µM.
In the same order, the values of `CC(C)C(=O)c1ccc(OCc2ccc(-c3ccc(S(=O)(=O)N[C@@H](C(=O)O)C(C)C)cc3)cc2)cc1` [drawing 151] are 8.4 µM and 0.1 µM.
On to `CC(C)[C@@H](NS(=O)(=O)c1ccc(-c2ccccc2)cc1)C(=O)O`, for which the values for the IC50 (in experiment [1]; on ADAMTS-4 (Agg-1)) were 5 µM and 2.6 µM, respectively.
As to `CC(=O)c1ccc(OCc2ccc(-c3ccc(S(=O)(=O)N[C@@H](C(=O)O)C(C)C)cc3)cc2)cc1`, the IC50 in experiment [1] is 7 µM; against ADAMTS-4 (Agg-1) it was 0.4 µM.
With `CC(C)[C@@H](NS(=O)(=O)c1ccc(-c2ccc(COc3cccc(F)c3)cc2)cc1)C(=O)O`, the IC50 in experiment [1] came to 8.2 µM.

(Values after patent publication US7390833B2, “Method for treating ADAMTS-5-associated disease” (Wyeth, priority 2003, dated 2008).)
